Experimental data reported in US20140249295A1, “LIGHT-INDUCIBLE SYSTEM FOR REGULATING PROTEIN STABILITY” (The Board of Trustees Of The Leland Stanford Junior …, priority 2013, published 2014).
Where a SMILES comes first, the peptide text is derived from it. The star is where a group is joined. Cbz = O=C(OCc1ccccc1)*

Tests used:
[1] = test system: NIH3T3 cells; assay: Flow cytometry / immunoblot of NIH3T3 cells stably expressing YFP-LOV2 domain fusions, dark vs blue light; type: cell-based; conditions: 10 μM MG132, blue light 2 hours, FACS analysis
Method: Genes encoding the proteins tested as fusions to the BLID domain were cloned by standard techniques in the retroviral pBMN vector encoding an iHcRed-t or iBlasticidin. The ΦNX ecotropic packaging cell line was cultured in DMEM supplemented with 10% heat-inactivated fetal bovine serum, 2 mM glutamine, 100 U/mL penicillin and 100 μg/mL streptomycin. The NIH3T3 cell line was cultured in DMEM supplemented with 10% heat-inactivated donor bovine serum, 2 mM glutamine, 100 U/mL penicillin and 100 μg/mL streptomycin. The ΦNX cells were transfected using standard Lipofectamine 2000 protocols. Viral supernatants were harvested 48 h posttransfection and filtered through a 0.45 μm nylon syringe filter. NIH3T3 cells were incubated with the retroviral supernatants supplemented with 4 μg/mL polybrene for 4-6 h at 37° C. Cells were cultured in growth media for 24 to 36 h to allow for viral integration, then assayed as described.
Twenty-four hours prior to analysis, transduced NIH3T3 cells were plated at 1×10^5 cells per well of a 12-well plate and treated with vehicle or blue light for indicated time points prior to analysis. […] Samples were analyzed at the Stanford Shared FACS Facility with 10,000 events represented.
For immunoblotting, NIH3T3 cells were washed in PBS and lysed on ice in MIPP buffer containing protease inhibitors. Protein concentration was measured by Bradford assay. […]

[2] = test system: 3T3 cells; conditions: cited from earlier work

Compound | effect on light-dependent decrease in fluorescence of YFP-LOV24 [1] | fluorescence of YFP with C-terminal degron [2]
CC(C)C[C@@H](C=O)NC(=O)[C@H](CC(C)C)NC(=O)[C@H](CC(C)C)NC(=O)OCc1ccccc1 [MG132] (Cbz-Leu-Leu-Leu-aldehyde) | prevents the light-dependent decrease in fluorescence | 
RRRG |  | no fluorescence is observed
